This test deals with human TRPV4 (Homo sapiens (Human), UniProt Q9HBA0). Put plainly: FLIPR assay for hTRPV4 expressed in BHK cells. The following applies: inhibition of Agonist Compound (EC80)-induced calcium signal; BHK/AC9 cells expressing human TRPV4; read-out: IC50. It is filed as cell-based. In a few lines:
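BHK/AC9 cells transduced with BacMam human TRPV4 (MOI 78), 15,000 cells/well, cultured 24 h at 37 °C. Loaded with 2 μM Fluo-4 AM and 500 μM Brilliant Black in HBSS for 1–1.5 h at room temperature in the dark. Intracellular calcium influx monitored by fluorescence.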

SMILES strings stand for the structures.

human TRPV4, sequence (Q9HBA0 whole entry): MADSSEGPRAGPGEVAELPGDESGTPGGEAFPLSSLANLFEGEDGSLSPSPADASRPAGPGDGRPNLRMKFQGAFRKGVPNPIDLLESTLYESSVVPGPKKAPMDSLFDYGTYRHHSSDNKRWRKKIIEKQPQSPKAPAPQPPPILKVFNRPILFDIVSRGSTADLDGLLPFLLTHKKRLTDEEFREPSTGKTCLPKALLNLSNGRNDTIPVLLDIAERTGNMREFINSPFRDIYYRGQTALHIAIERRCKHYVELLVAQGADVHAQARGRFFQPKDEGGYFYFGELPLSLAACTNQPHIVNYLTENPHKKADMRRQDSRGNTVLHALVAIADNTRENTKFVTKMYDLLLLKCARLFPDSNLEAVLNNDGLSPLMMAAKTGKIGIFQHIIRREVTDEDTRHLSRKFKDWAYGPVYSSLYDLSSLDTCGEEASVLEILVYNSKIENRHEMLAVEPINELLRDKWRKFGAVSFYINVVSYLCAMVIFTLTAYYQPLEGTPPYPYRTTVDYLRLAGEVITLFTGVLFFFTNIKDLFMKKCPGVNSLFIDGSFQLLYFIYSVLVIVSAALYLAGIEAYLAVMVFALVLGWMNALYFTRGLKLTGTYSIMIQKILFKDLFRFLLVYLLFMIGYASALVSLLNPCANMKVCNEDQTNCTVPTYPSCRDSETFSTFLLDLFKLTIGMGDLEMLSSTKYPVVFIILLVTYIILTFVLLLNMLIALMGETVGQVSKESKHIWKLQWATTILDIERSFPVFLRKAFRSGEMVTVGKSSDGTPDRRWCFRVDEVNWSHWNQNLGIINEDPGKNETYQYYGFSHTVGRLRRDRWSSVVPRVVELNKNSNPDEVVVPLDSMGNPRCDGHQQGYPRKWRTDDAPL

What is called IC50 is the concentration that inhibits the measured activity by half. Regarding `N#Cc1ccc(S(=O)(=O)N2C[C@H](S(=O)(=O)c3ccc(Cl)cc3)[C@@](O)(CN)C2)cc1` [Example 127, 4-(((3R,4S)-3-(aminomethyl)-4-((4-chlorophenyl)sulfonyl)-3-hydroxypyrrolidin-1-yl)sulfonyl)benzonitrile], the IC50 lay within 10 to 100 nM. In the case of `N#Cc1ccc(S(=O)(=O)[C@H]2CN(S(=O)(=O)c3ccc(C(F)(F)F)cc3Cl)C[C@@]2(O)CO)cn1` [Example 92, 5-(((3S,4R)-1-((2-chloro-4-(trifluoromethyl)phenyl)sulfonyl)-4-hydroxy-4-(hydroxymethyl)pyrrolidin-3-yl)sulfonyl)picolinonitrile], the half-maximal inhibitory concentration (IC50) lay in the range of 10 to 100 nM.

Consider `Cc1cc(S(=O)(=O)[C@H]2CN(S(=O)(=O)c3ccc(C(F)(F)F)cc3Cl)C[C@@]2(O)CO)ccc1C#N` [Example 100, 4-(((3S,4R)-1-((2-chloro-4-(trifluoromethyl)phenyl)sulfonyl)-4-hydroxy-4-(hydroxymethyl)pyrrolidin-3-yl)sulfonyl)-2-methylbenzonitrile], for which the concentration for half-maximal inhibition (IC50) lay in the range of 10 to 100 nM.
